Experiments:
[1] = biological target: T1, human adenosine A2A receptors (Homo sapiens, UniProt P29274); assay: Adenosine receptor binding: binding affinities at hA2A receptors ([3H]CGS-21680 displacement); conditions: Table 1; [3H]CGS-21680 displacement, HEK-293 membranes; read-out: Binding Affinity hA2A-Ki
T1 construct: host or cells: HEK-293
Method: Adenosine Receptor Binding: Binding Affinities at hA2A Receptors
(§1) The resultant homogenate was kept for immediate use in the binding assay. Binding assays were performed in a total volume of 250 μL, containing [^3H]-CGS21680 (20.0 nM), membranes and additional drugs. Total binding was determined using drug dilution buffer (50 mM Tris-HCl pH 7.5, 10 mM MgCl2, 5% DMSO). Non-specific binding was determined using 300 μM CHA. […] Filters were left to dry overnight, and Microscint-0 scintillation fluid was then added to the filters. The filters were then left for at least 2 hours before the radioactivity was assessed using a Canberra Packard TopCount microplate scintillation counter.
To determine the free ligand concentration, three vials were counted with 25 μL of [^3H]CGS21680 containing 4 mL of Ultima-Gold MV scintillant on a Beckman LS6500 multi-purpose scintillation counter.
(§2) Data was analysed using a 4 parameter logistical equation and non-linear regression which yields affinity constants (pIC50), and slope parameters:
(§3) [formula] where E is the quantity of binding and [A] is the competitor concentration. The Ki is then determined using the Cheng-Prusoff equation: […]

[2] = biological target: T2, human adenosine A1 receptors (Homo sapiens, UniProt P30542); assay: Adenosine receptor binding: binding affinities at hA1 receptors ([3H]DPCPX displacement); conditions: Table 1; for Ki: [3H]DPCPX displacement, CHO-K1 membranes, read-out: Binding Affinity hA1-Ki; for Binding Selectivity A1/A2a: ratio of Ki values
T2 construct: expressed in transfected cells; host or cells: CHO-K1
T2 sequence (P30542 1-326): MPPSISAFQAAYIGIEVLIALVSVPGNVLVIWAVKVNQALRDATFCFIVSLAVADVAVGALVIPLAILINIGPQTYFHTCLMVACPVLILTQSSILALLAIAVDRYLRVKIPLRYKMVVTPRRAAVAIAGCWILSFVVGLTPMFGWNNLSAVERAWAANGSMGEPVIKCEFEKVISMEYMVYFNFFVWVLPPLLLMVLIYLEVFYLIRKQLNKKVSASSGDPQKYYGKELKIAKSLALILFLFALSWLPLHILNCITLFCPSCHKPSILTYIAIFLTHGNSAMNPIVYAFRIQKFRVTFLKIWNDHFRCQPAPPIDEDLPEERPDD
Method: Adenosine Receptor Binding: Binding Affinities at hA1 Receptors
The resultant homogenate was kept for immediate use in the binding.
as §1, with “Binding” for “The resultant homogenate was kept for immediate use in the binding assay. Binding”, “[^3H]-DPCPX (3.0” for “[^3H]-CGS21680 (20.0”, “pH:7.5,” for “pH 7.5,”, “N6-cyclohexyladenosine (CHA).” for “CHA.”
To determine the free ligand concentration, three vials were counted with 25 μL of [^3H]DPCPX containing 4 mL of Ultima-Gold MV scintillant on a Beckman LS6500 multi-purpose scintillation counter.
as §2, §3

[3] = biological target: T3, human adenosine A3 receptors (Homo sapiens, UniProt P0DMS8); assay: Adenosine receptor binding: binding affinities at hA3 receptors ([125I]-AB MECA displacement); conditions: Table 1; for Ki: [125I]-AB MECA displacement, CHO-K1 membranes, read-out: Binding Affinity hA3-Ki; for Binding Selectivity A3/A2a: ratio of Ki values
T3 construct: expressed in transfected cells; host or cells: CHO-K1
T3 sequence (P0DMS8 1-318): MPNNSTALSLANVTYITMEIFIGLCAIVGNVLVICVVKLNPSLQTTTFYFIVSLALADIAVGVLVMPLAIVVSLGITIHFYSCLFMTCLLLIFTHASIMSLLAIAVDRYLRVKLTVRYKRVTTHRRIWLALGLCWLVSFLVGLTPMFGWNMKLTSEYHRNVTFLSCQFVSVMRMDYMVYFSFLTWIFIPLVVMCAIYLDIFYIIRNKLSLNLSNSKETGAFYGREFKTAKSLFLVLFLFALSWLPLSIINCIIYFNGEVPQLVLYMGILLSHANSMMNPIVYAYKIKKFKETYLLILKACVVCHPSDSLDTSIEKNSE
Method: [formula] Adenosine Receptor Binding: Binding Affinities at hA3 Receptors
The resultant homogenate was kept for immediate use in the binding assay.
Total binding was determined using drug dilution buffer (50 mM Tris-HCl pH 7.5, 10 mM MgCl2, 5% DMSO). Non-specific binding was determined using 10 μM IB-MECA. […] Filters were left to dry overnight, and Microscint-0 scintillation fluid was then added to the filters. The filters were then left for at least 2 hours before the radioactivity was assessed using a Canberra Packard TopCount microplate scintillation counter.
as §2, §3

[4] = biological target: T4, hA2B receptors (Homo sapiens, UniProt P29275); assay: Adenosine receptor binding: binding affinities at hA2B receptors ([3H]-ZM241385 displacement); conditions: Table 1; for Ki: [3H]-ZM241385 displacement, HEK-293 membranes, read-out: Binding Affinity hA2B-Ki; for Binding Selectivity A2b/A2a: ratio of Ki values
T4 construct: host or cells: HEK-293
T4 sequence (P29275 1-332): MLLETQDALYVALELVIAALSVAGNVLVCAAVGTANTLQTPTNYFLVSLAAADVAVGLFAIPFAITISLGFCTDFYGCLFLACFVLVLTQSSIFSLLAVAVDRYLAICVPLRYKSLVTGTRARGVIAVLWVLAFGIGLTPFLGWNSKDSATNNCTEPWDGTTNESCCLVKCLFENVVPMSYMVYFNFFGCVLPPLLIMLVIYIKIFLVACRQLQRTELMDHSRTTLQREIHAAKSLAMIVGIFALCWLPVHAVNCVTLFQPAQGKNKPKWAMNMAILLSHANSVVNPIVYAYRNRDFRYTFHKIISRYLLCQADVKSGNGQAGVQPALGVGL

[5] = test system: haloperidol-induced deficits in locomotor activity in mice; assay: Haloperidol-induced hypolocomotion model (HaloLMA); assay type: in vivo; conditions: female TO mice, intraperitoneal, haloperidol 0.2 mg/kg
Excerpt: Evaluation of Potential Anti-Parkinsonian Activity In Vivo: Haloperidol-Induced Hypolocomotion Model
This approach is also considered a valid method for screening drugs with potential antiparkinsonian effects. Thus, the ability of novel adenosine antagonists to block haloperidol-induced deficits in locomotor activity in mice can be used to assess both in vivo and potential antiparkinsonian efficacy.
Female TO mice (25-30 g) are used for all experiments. Animals are housed in groups of 8 (cage size-40 cm (width) by 40 cm (length) by 20 cm (height)) under 12 hour light/dark cycle (lights on 08:00), in a temperature (20±2° C.) and humidity (55±15%) controlled environment. Animals have free access to food and water, and are allowed at least 7 days to acclimatize after delivery before experimental use.
Liquid injectable haloperidol (e.g., 1 mL Serenance ampoules from Baker Norton, Harlow, Essex, each containing haloperidol BP 5 mg) are diluted to a final concentration of 0.02 mg/mL using saline. Test compounds are typically prepared as aqueous suspensions in 8% Tween. All compounds are administered intraperitoneally in a volume of 10 mL/kg.
1.5 hours before testing, mice are administered 0.2 mg/kg haloperidol, a dose that reduces baseline locomotor activity by at least 50%. Test substances are typically administered 5-60 minutes prior to testing. The animals are then placed individually into clean, clear polycarbonate cages (20 cm (width) by 40 cm (length) by 20 cm (height), with a flat perforated, Perspex lid). Horizontal locomotor activity is determined by placing the cages within a frame containing a 3 by 6 array of photocells linked to a computer, which tabulates beam breaks. Mice are left undisturbed to explore for 1 hour, and the number of beams breaks made during this period serves as a record of locomotor activity which is compared with data for control animals for statistically significant differences.
A number of the exemplified compounds of the present invention were tested in this assay and the results obtained are shown in Table 3, below.

T1 sequence (P29274 whole entry): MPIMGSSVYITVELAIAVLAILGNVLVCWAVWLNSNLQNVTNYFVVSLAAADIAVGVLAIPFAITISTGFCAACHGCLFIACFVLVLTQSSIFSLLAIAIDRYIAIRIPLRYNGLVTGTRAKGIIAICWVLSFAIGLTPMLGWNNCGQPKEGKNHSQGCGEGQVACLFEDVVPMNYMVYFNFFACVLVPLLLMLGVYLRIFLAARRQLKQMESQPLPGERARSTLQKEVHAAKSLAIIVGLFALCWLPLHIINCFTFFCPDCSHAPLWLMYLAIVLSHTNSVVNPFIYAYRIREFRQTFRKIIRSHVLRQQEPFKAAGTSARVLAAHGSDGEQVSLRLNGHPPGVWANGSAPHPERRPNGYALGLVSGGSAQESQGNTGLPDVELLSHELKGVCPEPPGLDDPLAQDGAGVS

Row | Structure (SMILES) | Ki [1] [nM] | Ki [2] [nM] | Binding Selectivity A1/A2a [2] | Ki [3] [nM] | Binding Selectivity A3/A2a [3] | Ki [4] [nM] | Binding Selectivity A2b/A2a [4] | In Vivo activity HaloLMA MED [5] [mg/kg]
1 | CC(C)(O)c1cccc(Cn2nnc3c(-c4ccccc4)nc(N)nc32)n1 [Example 8, 7-phenyl-3-(6-[1-hydroxy-1-methylethyl]pyrid-2-ylmethyl)-3H-[1,2,3]triazolo[4,5-d]pyrimidin-5-amine] | 4.8 | 214 | 44 | 3760 | 780 | 1300 | 269 | 3
2 | COCc1cccc(Cn2nnc3c(-c4cccc(OC)c4)nc(N)nc32)n1 [Example 18, 7-(3-methoxyphenyl)-3-(6-[methoxymethyl]pyrid-2-ylmethyl)-3H-[1,2,3]triazolo[4,5-d]pyrimidin-5-amine] |  |  |  |  |  |  |  | <30
3 | COCc1cccc(Cn2nnc3c(-c4cccc(C#N)c4)nc(N)nc32)n1 [Example 24, 7-(3-cyanophenyl)-3-(6-[methoxymethyl]pyrid-2-ylmethyl)-3H-[1,2,3]triazolo[4,5-d]pyrimidin-5-amine] |  |  |  |  |  |  |  | 10
4 | Cc1csc(-c2nc(N)nc3c2nnn3Cc2cccc(CO[C@H]3CCOC3)n2)n1 [Example 25, S-7-(4-methylthiazol-2-yl)-3-(6-[tetrahydrofuran-3-yl]oxymethylpyrid-2-ylmethyl)-3H-[1,2,3]triazolo[4,5-d]pyrimidin-5-amine] |  |  |  |  |  |  |  | 3
5 | Nc1nc(-c2nccs2)c2nnn(Cc3cccc(CO[C@H]4CCOC4)n3)c2n1 [Example 38, S-7-(thiazol-2-yl)-3-(6-[tetrahydrofuran-3-yl]oxymethylpyrid-2-ylmethyl)-3H-[1,2,3]triazolo[4,5-d]pyrimidin-5-amine] | 28.4 | 2090 | 73 |  |  | 2980 | 105 | 10

Second part, led by results:

Row | Ki [1] [nM] | Ki [2] [nM] | Binding Selectivity A1/A2a [2] | Ki [3] [nM] | Binding Selectivity A3/A2a [3] | Ki [4] [nM] | Binding Selectivity A2b/A2a [4] | Structure (SMILES) | In Vivo activity HaloLMA MED [5] [mg/kg]
6 | 1.9 | 360 | 192 | 706 | 375 | 2190 | 1165 | Cc1ccc(-c2nc(N)nc3c2nnn3Cc2cccc(C(C)(C)O)n2)o1 [Example 2, 7-(5-methylfuran-2-yl)-3-(6-[1-hydroxy-1-methylethyl]pyrid-2-ylmethyl)-3H-[1,2,3]triazolo[4,5-d]pyrimidin-5-amine] | 1
7 | 1.6 | 366 | 226 | 754 | 465 | 976 | 602 | Cc1ccc(-c2nc(N)nc3c2nnn3Cc2cccc(C3(O)CCCC3)n2)o1 [Example 3, 7-(5-methylfuran-2-yl)-3-(6-[1-hydroxy-1-cyclopentyl]pyrid-2-ylmethyl)-3H-[1,2,3]triazolo[4,5-d]pyrimidin-5-amine] | 1
8 | 3.1 | 196 | 63 | 1640 | 528 | 1130 | 366 | Cc1ccc(-c2nc(N)nc3c2nnn3Cc2cccc(C3(O)CCCCC3)n2)o1 [Example 4, 7-(5-methylfuran-2-yl)-3-(6-[1-hydroxy-1-cyclohexyl]pyrid-2-ylmethyl)-3H-[1,2,3]triazolo[4,5-d]pyrimidin-5-amine] | 3
9 | 4.3 | 853 | 199 |  | 1989 | 4200 | 980 | Cc1ccc(-c2nc(N)nc3c2nnn3Cc2cccc(C3(O)CCOCC3)n2)o1 [Example 5, 7-(5-methylfuran-2-yl)-3-(6-[4-hydroxyetrahydropyran-4-yl]pyrid-2-ylmethyl)-3H-[1,2,3]triazolo[4,5-d]pyrimidin-5-amine] | 3
10 | 1.1 | 354 | 313 | 1500 | 1326 | 1370 | 1216 | Cc1ccc(-c2nc(N)nc3c2nnn3Cc2cccc(C3(O)CCC3)n2)o1 [Example 6] | 1
11 | 9.8 | 706 | 72 |  |  | 3410 | 347 | Nc1nc(-c2ccccc2)c2nnn(Cc3cccc(C4(O)CCCC4)n3)c2n1 [Example 9, 7-phenyl-3-(6-[1-hydroxy-1-cyclopentyl]pyrid-2-ylmethyl)-3H-[1,2,3]triazolo[4,5-d]pyrimidin-5-amine] | 10
12 | 4.5 | 422 | 93 | 939 | 208 |  |  | COC(C)(C)OCc1cccc(Cn2nnc3c(-c4ccc(C)o4)nc(N)nc32)n1 [Example 36, 7-(5-methylfuran-2-yl)-3-(6-[1-methoxy-1-methylethyl]oxymethylpyrid-2-ylmethyl)-3H-[1,2,3]triazolo[4,5-d]pyrimidin-5-amine] | 1 to 3
